According to patent US20260257992A1, “AGONISTS OF SMALL HETERODIMER PARTNER FOR CANCER THERAPY” (THE BOARD OF TRUSTEES OF THE UNIVERSITY OF ILLINOIS, priority 2023, published 2026):

Columns and labels:
[1] = biological target: T1, NR0B2 (Homo sapiens, UniProt Q15466); assay: ABCA1 reporter screen to identify NR0B2 agonists (HepG2); assay type: cell-based; design: key: ✓: using strict cutoffs with respect to DSHN for passing each metric; X: using strict cutoffs with respect to DSHN for passing each metric; settings: HepG2, 50 μM test compound, 1 μM GW3965; pass/fail with respect to DSHN
T1 construct: a reporter assay which makes use of the endogenous cholesterol homeostatic feedback loop; endogenous in cells; host or cells: HepG2
T1 sequence (Q15466 1-257): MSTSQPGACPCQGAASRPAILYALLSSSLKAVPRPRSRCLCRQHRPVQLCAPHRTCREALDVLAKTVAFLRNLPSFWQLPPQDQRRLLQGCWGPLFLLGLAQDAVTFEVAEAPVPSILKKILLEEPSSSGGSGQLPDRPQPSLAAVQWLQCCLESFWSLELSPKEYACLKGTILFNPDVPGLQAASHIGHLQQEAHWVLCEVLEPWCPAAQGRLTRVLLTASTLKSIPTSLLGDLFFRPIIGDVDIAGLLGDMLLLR
Text: (§1) Development of a more efficacious NR0B2 agonist. While DSHN was a useful proof-of-concept small molecule, macrophages required high doses and chronic exposure for robust influences on subsequent Tregs expansion. […] Therefore, we synthesized several derivatives of DSHN and screened them using a reporter assay which makes use of the endogenous cholesterol homeostatic feedback loop, where FXR activation upregulates NR0B2, which then inhibits LXR and its normal induction of ABCA1. We then followed this screen with several others with stringent cutoffs: effect on endogenous ABCA1 and IL1β expression, reduction of Treg expansion in either macrophage or DC co-cultures, and low cellular toxicity (FIG. 5A, Table 4).
Screening to identify NR0B2 agonists. HepG2 cells were co-transfected with ABCA1 renilla reporter plasmid and TK-control firefly luciferase vector at 20:1 using Lipofectamine 3000 reagent according to manufacturer's instructions for 24 hrs. Afterwards, 7000 cells were seeded in to 384 well f-bottom, white plates (Greiner Bio-One). Test compounds were added to the plates in a final working volume of 30 μL (for a final concentration of 50 μM) in presence of DMSO or 1 μM GW3965 and incubated for 20-24 hrs at 37° C. Luciferase activity was measured using the Luc-Pair Duo-Luciferase HT Assay kit (GeneCopoeia, Rockville, MD, USA) by adding luciferase substrates sequentially following manufacturer instructions. Luminescence was measured with 2 s integration times in a microplate reader (BioTek Cytation 5), 15 min after adding each substrate. The addition of reagents to the microplates was timed at each step to match the reading time delays and reading sequence of the microplate reader.

[2] = test system: Treg expansion; assay: Treg expansion in co-culture with compound-treated BMDMs (macrophages); assay type: cell-based, mouse; design: key to Treg expansion macrophages: ✓: using strict cutoffs with respect to DSHN for passing each metric; X: using strict cutoffs with respect to DSHN for passing each metric; settings: pass/fail with respect to DSHN
Experimental: (§2) Preparation of Bone Marrow-Derived Macrophages (BMDMs) and Dendritic Cells. Bone marrow cells were collected from mouse tibia and femur. Cells were passed through 70-micron cell strainer and subsequently cultured 10 mL complete RPMI media supplemented with 20 ng/mL of recombinant murine M-CSF (576406; BioLegend, 315-02 PeproTech). On day 3, additional 5 ml of the complete media was added. On day 7, media was replaced. BMDMs were harvested on day 10 using cell stripper solution for further experiments. Dendritic cells were isolated from the spleens of wildtype, using mouse CD11c UltraPure MicroBeads (130-125-835; Miltenyi Biotec) according to the manufacturer's instructions) and cultured in RPMI medium supplemented with 10% heat-inactivated charcoal-stripped FBS, 50 μM β-mercaptoethanol, 1% sodium pyruvate, 1% nonessential amino acids, % penicillin/streptomycin, and 1% Glutamax.
(§3) In vitro Treg expansion assays. T cells were cultured in RPMI medium supplemented with 10% heat-inactivated charcoal-stripped FBS, 50 μM β-mercaptoethanol (Gibco), 1% sodium pyruvate, 1% nonessential amino acids, % penicillin/streptomycin, and 1% Glutamax (Gibco). Naïve CD4^+ T cells were isolated from the spleens of wildtype and OT-II, using Naive CD4^+ T Cell Isolation Kit (Miltenyi Biotec according to the manufacturer's instructions). T cells were labeled with the vital dye CFSE (BioLegend) or Cell Trace Violet (ThermoFisher) according to the manufacturer's instructions. For wildtype Treg expansion in presence of antigen presenting cells, naïve CD4^+ T cells were co-cultured with APC at indicated ratio in the presence of 0.5 μg/mL (anti-CD3 BioLegend), 0.5 ng/mL TGFβ (BioLegend) and 0.5 ng/ml IL-2 (BioLegend) for 72 hr at 37° C. For OT-II Treg expansion, OTII naïve CD4^+ T cells from OT-II mice were activated by antigen presentation by culturing BMDMs were primed with 10 μg/mL OVA323-339 (Bachem) and 0.5 μg/mL LPS (Sigma). naïve CD4+ T cells from OTII mice were co-cultured with primed APC at indicated ratio for 72 hrs. After 72 hrs of culture, cells were transferred into V-bottom plates (BD), pelleted by centrifugation and incubated with antibody staining mix containing Ghost Dye™ Red 780 viability dye diluted in PBS for 15 minutes at 4° C. Cell surface antigens were stained for 15 minutes at 4° C. with an antibody staining mix containing Ghost Dye™ Red 780 viability dye diluted in PBS. Cells were fixed and permeabilized with BD Cytofix/Cytoperm™ for 20 minutes at 4° C. Antibodies against intracellular antigens were diluted in 1×BD Perm/Wash™ buffer and cells were stained for 30 minutes at 4° C. Cytometry data were acquired on a LSRII, Fortessa, Symphony A1 (Becton Dickinson, NJ). Foxp3 induction was assessed by expression of FOXP3.

[3] = test system: Treg expansion; assay: Treg expansion in co-culture with compound-treated splenic CD11C+ dendritic cells; assay type: cell-based, mouse; design: key to Treg expansion Dendritic Cells: ✓: using strict cutoffs with respect to DSHN for passing each metric; X: using strict cutoffs with respect to DSHN for passing each metric; settings: pass/fail with respect to DSHN
Experimental: as §2, §3

[4] = test system: ABCA1 mRNA; assay: ABCA1 mRNA reduction in Raw cells; assay type: cell-based; design: key: ✓: using strict cutoffs with respect to DSHN for passing each metric; X: using strict cutoffs with respect to DSHN for passing each metric; settings: pass/fail with respect to DSHN
Text: as §1

[5] = test system: IL1b mRNA; assay: IL1b mRNA reduction in Raw cells; assay type: cell-based; design: key: ✓: using strict cutoffs with respect to DSHN for passing each metric; X: using strict cutoffs with respect to DSHN for passing each metric; settings: pass/fail with respect to DSHN
Text: as §1

[6] = Low cellular toxicity screen; assay type: cell-based; design: key: ✓: using strict cutoffs with respect to DSHN for passing each metric; X: using strict cutoffs with respect to DSHN for passing each metric; settings: pass/fail with respect to DSHN
Text: as §1
Resazurin cell viability assay. 20,000 cells were seeded into 96 well f-bottom, black plates (Corning Costar) and cell viability was measured using 100 μL resazurin per well at 0.3 mg/mL (Acros Organics). The fluorescence signal was quantified by plate reader (560 nm excitation/590 nm emission) at 2-3 h.

SMILES | ABCA1 reporter screen [1] | Treg expansion macrophages [2] | Treg expansion Dendritic Cells [3] | ABCA1 mRNA reduction (Raw Cells) [4] | IL1b mRNA reduction (Raw Cells) [5] | Low Toxicity [6]
CCNS(=O)(=O)c1cccc2cc(C(=O)OC)c(OC)cc12 [Compound 5, Methyl 5-(N-ethylsulfamoyl)-3-methoxy-2-naphthoate] | X | ✓ | ✓ | X | ✓ | ✓
CCNS(=O)(=O)c1ccc2cc(OC)c(C(=O)OC)cc2c1 [Compound 6, Methyl 7-(N-ethylsulfamoyl)-3-methoxy-2-naphthoate] | ✓ | ✓ | ✓ | X | X | X
COC(=O)c1cc2cccc(S(=O)(=O)N(C)C)c2cc1OC [Compound 7, Methyl 5-(N,N-dimethylsulfamoyl)-3-methoxy-2-naphthoate] | ✓ | ✓ | ✓ | X | ✓ | ✓
COC(=O)c1cc2cc(S(=O)(=O)N(C)C)ccc2cc1OC [Compound 8, Methyl 7-(N,N-dimethylsulfamoyl)-3-methoxy-2-naphthoate] | ✓ | ✓ | ✓ | X | X | ✓
CCN(CC)S(=O)(=O)c1ccc2cc(O)c(C(=O)OC)cc2c1 [Compound 9, Methyl 7-(N,N-diethylsulfamoyl)-3-hydroxy-2-naphthoate] | X | ✓ | ✓ | X | ✓ | ✓
